Laboratory results: ChEMBL document CHEMBL5046276 (J Med Chem, 2022)
Activity calls are given as the source filed them. The calls are words filed in the database; no cut-off is given here.

Experiments:
[1] = Toxicity in BALB/c mouse infected with blood stage Plasmodium yoelii assessed as body weight loss at 30 to 90 mg/kg, ip qd for 5 days and measured upto 60 days; assay type: organism-based; conditions: in vivo, dose 30-90 mg/kg, time <=60 day
[2] = Toxicity in BALB/c mouse infected with blood stage Plasmodium yoelii assessed as animal death at 30 to 90 mg/kg, ip qd for 5 days and measured on day 60; assay type: organism-based; conditions: in vivo, 1440 h, dose 30-90 mg/kg, time 60 day
[3] = Apparent volume of distribution in BALB/c mouse at 5 mg/kg, ip measured after upto 24 hrs by LC-MS/MS analysis; assay type: ADME, organism-based; conditions: in vivo, read-out: Vz/F
Plasmodium falciparum [4] = test: Antimalarial activity against synchronized Plasmodium falcipuram 3D7 infected in human RBC assessed as irreversible inhibition of parasite growth at trophozoite stage at 40 nM treated at 17 to 29 hpi incubated for 12 hrs followed by compound washout and replacement with fresh medium without compounds and measured after 4 days by flow cytometry; assay type: functional, organism-based
Plasmodium yoelii [5] = test: Antimalarial activity against blood stage Plasmodium yoelii infected in BALB/c mouse assessed as parasite recrudescence by measuring parasitemia at 30 mg/kg, ip qd for 5 days and measured for 8 to 16 days; assay type: functional; conditions: time 8-16 day
[6] = In vivo inhibition of C-terminal glmS fused HDAC1 in Plasmodium falcipuram 3D7 assessed as inhibition of parasite growth incubated for 4 hrs followed by compound washout and replacement with fresh medium with compounds measured after 68 hrs by SYBR Green I staining based fluorescence analysis; assay type: functional, organism-based, Plasmodium falciparum
Plasmodium falciparum [7] = test: Antimalarial activity against asexual blood stage quinine-resistant Plasmodium falcipuram C2A assessed as parasite growth inhibition incubated for 72 hrs by SYBR Green I staining based fluorescence analysis; assay type: functional, organism-based
Plasmodium falciparum [8] = test: In vivo inhibition of C-terminal TY1 fused HDAC2 in Plasmodium falcipuram 3D7 assessed as inhibition of parasite growth incubated for 4 hrs followed by compound washout and replacement with fresh medium with compounds measured after 68 hrs by SYBR Green I staining based fluorescence analysis; assay type: functional, organism-based
Plasmodium falciparum [9] = test: Antimalarial activity against wild-type Plasmodium falcipuram 3D7 infected in human RBC assessed as reduction in parasitemia in blood smear by measuring parasite survival ratio at ring stage at upto 700 nM incubated for 6 hrs followed by compound washout and replacement with fresh medium without compounds and measured after 66 hrs by ring stage survival assay; assay type: functional; conditions: dose nM <=700, time 6.0 hrs
[10] = Metabolic stability in human liver microsomes assessed as half life at […] incubated for 45 mins in presence of NADPH by LC/MS analysis; assay type: ADME, Microsome
Histone deacetylase 2 = Histone deacetylase 2 (Homo sapiens, UniProt Q92769); test: Potency index, ratio of test compound IC50 to Quisinostat IC50 for inhibition of recombinant human full length C-terminal His tagged HDAC2 (1 to 488 residues) expressed in baculovirus-infected Sf9 insect cells using Ac-peptide as substrate incubated for 4 hrs
[11] = Toxicity in BALB/c mouse infected with liver stage transgenic Plasmodium berghei ANKA sporozoites transfected with GFP-Luc assessed as animal death at 30 mg/kg, iv measured on day 4 post-administration; assay type: organism-based; conditions: in vivo, 96 h, time 4 day
Plasmodium falciparum [12] = test: Antimalarial activity against synchronized Plasmodium falcipuram 3D7 infected in human RBC assessed as ring stage parasite killing at 40 nM treated […] and incubated for 12 hrs followed by compound washout and replacement with fresh medium without compounds and measured at 50 hrs post infection by Geimsa staining based microscopy; assay type: functional, organism-based
[13] = Drug concentration in BALB/c mouse plasma at 5 mg/kg, ip measured upto 24 hrs by LC-MS/MS analysis; assay type: ADME, organism-based
Plasmodium falciparum [14] = test: Antimalarial activity against asexual blood stage chloroquine-resistant Plasmodium falcipuram GB4 assessed as parasite growth inhibition incubated for 72 hrs by SYBR Green I staining based fluorescence analysis; assay type: functional, organism-based; conditions: GB4, 72 h
Plasmodium falciparum [15] = test: Antimalarial activity against late stage (IV) Plasmodium falciparum NF54 gametocytes transfected with p230p-Luc assessed as reduction in gametocyte viability incubated for 48 hrs by luciferase reporter gene based bioluminescence assay; assay type: functional, organism-based; conditions: NF54, 48 h
Histone deacetylase 8 = biological target: T1, Histone deacetylase 8 (Homo sapiens, UniProt Q9BY41); test: Inhibition of recombinant human full length C-terminal His-tagged HDAC8 expressed in baculovirus-infected Sf9 insect cells using Ac-peptide as substrate incubated for 4 hrs followed by trypsin addition and further incubated for 2 hrs
T1 sequence (Q9BY41 whole entry): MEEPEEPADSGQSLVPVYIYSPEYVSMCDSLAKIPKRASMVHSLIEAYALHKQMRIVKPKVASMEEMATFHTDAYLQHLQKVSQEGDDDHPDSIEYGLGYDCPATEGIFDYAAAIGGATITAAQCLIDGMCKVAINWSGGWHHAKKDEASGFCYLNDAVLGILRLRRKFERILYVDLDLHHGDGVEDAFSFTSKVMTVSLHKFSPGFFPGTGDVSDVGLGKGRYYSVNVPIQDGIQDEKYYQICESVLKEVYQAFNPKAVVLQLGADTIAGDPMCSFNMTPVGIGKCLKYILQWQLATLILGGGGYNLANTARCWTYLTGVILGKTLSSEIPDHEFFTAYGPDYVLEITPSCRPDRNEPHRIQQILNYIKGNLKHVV

[16] = Apparent elimination half life in BALB/c mouse at 5 mg/kg, ip measured after upto 24 hrs by LC-MS/MS analysis; assay type: ADME, organism-based; conditions: in vivo, read-out: betat1/2(app) (converted)
Plasmodium falciparum [17] = test: Antimalarial activity against blood stage asynchronous Plasmodium falcipuram 3D7 assessed as suppression of parasite reproduction by measuring parasitemia at 10 nM incubated for 24 hrs followed by compound washout and replacement with fresh medium without compounds and measured after 4 days by flow cytometry; assay type: functional
[18] = AUC (0 to infinity) in BALB/c mouse at 5 mg/kg, ip measured after upto 24 hrs by LC-MS/MS analysis; assay type: ADME, organism-based; parameters: route intraperitoneal, dose 5 mg/kg, time <=24; conditions: in vivo
Histone deacetylase 1 = Histone deacetylase 1 (Homo sapiens, UniProt Q13547); test: Inhibition of recombinant human full length C-terminal His/FLAG tagged HDAC1 (1 to 482 residues) expressed in baculovirus-infected Sf9 cells using Ac-peptide as substrate incubated for 4 hrs
[19] = Metabolic stability in mouse liver microsomes assessed as intrinsic clearance at […] incubated for 45 mins in presence of NADPH by LC/MS analysis; assay type: ADME, Microsome; conditions: read-out: CLH
Plasmodium falciparum [20] = test: Antimalarial activity against synchronized Plasmodium falcipuram 3D7 infected in human RBC assessed as irreversible inhibition of parasite growth at ring stage at 40 nM treated at 5 to 17 hpi incubated for 12 hrs followed by compound washout and replacement with fresh medium without compounds and measured after 4 days by flow cytometry; assay type: functional, organism-based
Plasmodium falciparum [21] = test: Antimalarial activity against blood stage asynchronous Plasmodium falcipuram 3D7 assessed as parasite growth inhibition by measuring parasitemia at 10 to 100 nM incubated for 12 to 24 hrs by flow cytometry; assay type: functional, organism-based; conditions: dose 10-100 nM, time 12-24 hrs
Plasmodium yoelii [22] = test: Antimalarial activity against blood stage Plasmodium yoelii infected in BALB/c mouse assessed as inhibition of parasitemia at 60 mg/kg, ip qd for 5 days and measured after 30 days; assay type: functional, organism-based; conditions: time 30.0 day
Plasmodium falciparum [23] = test: Inhibition of Plasmodium falcipuram recombinant HDAC1 using HDAC-Glo I/II as substrate at 50 to 800 nM preincubated for 90 mins by luminescence based microplate reader analysis; conditions: dose 50-800 nM
[24] = AUC (0 to last) in BALB/c mouse at 5 mg/kg, ip measured after upto 24 hrs by LC-MS/MS analysis; assay type: ADME, organism-based; parameters: route intraperitoneal, dose 5 mg/kg, time <=24; conditions: in vivo
Plasmodium falciparum [25] = test: Antimalarial activity against asexual blood stage chloroquine-resistant Plasmodium falciparum Dd2 assessed as parasite growth inhibition incubated for 72 hrs by SYBR Green I staining based fluorescence analysis; assay type: functional, organism-based; conditions: Dd2, 72 h
Plasmodium falciparum [26] = test: In vivo inhibition of C-terminal glmS fused HDAC1 in Plasmodium falcipuram 3D7 assessed as inhibition of parasite growth by measuring downregulation of RBC invasion-related genes expression level by RNA-seq analysis; assay type: functional, organism-based

Histone deacetylase 2, sequence (Q92769 whole entry, the tested form may be a part): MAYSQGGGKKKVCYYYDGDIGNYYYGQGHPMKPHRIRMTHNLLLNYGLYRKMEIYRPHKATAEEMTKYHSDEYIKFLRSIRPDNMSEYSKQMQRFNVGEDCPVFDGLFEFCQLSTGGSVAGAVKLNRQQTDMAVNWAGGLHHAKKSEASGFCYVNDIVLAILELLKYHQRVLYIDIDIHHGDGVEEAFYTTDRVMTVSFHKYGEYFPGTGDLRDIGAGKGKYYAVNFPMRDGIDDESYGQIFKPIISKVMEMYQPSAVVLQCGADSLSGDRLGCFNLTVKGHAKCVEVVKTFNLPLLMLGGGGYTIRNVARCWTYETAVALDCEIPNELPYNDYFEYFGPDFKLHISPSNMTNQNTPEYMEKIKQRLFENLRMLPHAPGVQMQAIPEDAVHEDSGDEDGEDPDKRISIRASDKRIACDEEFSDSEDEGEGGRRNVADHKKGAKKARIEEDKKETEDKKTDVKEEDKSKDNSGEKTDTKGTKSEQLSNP
Histone deacetylase 1, sequence (Q13547 whole entry, the tested form may be a part): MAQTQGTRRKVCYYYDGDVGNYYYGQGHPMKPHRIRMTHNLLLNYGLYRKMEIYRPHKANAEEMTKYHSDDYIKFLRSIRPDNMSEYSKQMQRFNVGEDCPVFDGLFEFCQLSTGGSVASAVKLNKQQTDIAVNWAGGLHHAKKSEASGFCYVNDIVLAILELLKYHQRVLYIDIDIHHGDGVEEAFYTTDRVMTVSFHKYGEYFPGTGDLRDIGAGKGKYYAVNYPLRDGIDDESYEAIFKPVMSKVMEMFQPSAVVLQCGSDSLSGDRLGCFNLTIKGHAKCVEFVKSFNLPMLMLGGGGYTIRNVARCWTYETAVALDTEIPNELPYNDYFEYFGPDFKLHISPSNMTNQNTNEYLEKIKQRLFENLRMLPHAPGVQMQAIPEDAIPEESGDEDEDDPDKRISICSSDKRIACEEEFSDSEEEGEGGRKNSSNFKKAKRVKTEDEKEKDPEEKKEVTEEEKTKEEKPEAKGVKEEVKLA

## Cl.Cn1cc(CN2CC3(CCN(c4ncc(C(=O)NO)cn4)C3)C2)c2ccc(C#N)cc21
[1]
  Activity: Non-Toxic
[2]
  Activity: Non-Toxic
[3]
  Vd/F: 10.2 L/kg
Plasmodium falciparum [4]
  Activity: Active
Plasmodium yoelii [5]
  Activity: 0.02%
[6]
  IC50: 16.8 nM
Plasmodium falciparum [7]
  IC50: 2.18 nM
Plasmodium falciparum [8]
  inhibition: Active
Plasmodium falciparum [9]
  Activity: Active
[10]
  half-life: > 120 min
Histone deacetylase 2
  Ratio IC50: 3
[11]
  Activity: Non-Toxic
Plasmodium falciparum [12]
  Activity: Active
[13]
  concentration at 24 h: 89 ng/mL
Plasmodium falciparum [14]
  IC50: 3.06 nM
Plasmodium falciparum [15]
  IC50: 12.4 nM
Histone deacetylase 8
  IC50: 29.9 nM
[16]
  half-life: 54.6 min
Plasmodium falciparum [17]
  Activity: 100%
[18]
  AUC(0-inf): 640 ng·h/mL
Histone deacetylase 1
  IC50: 2.2 nM
[19]
  CLint scaled: 68.1 mL/min/kg
Plasmodium falciparum [20]
  Activity: Active
Plasmodium falciparum [21]
  Activity: Active
Plasmodium yoelii [22]
  Activity: Active
Plasmodium falciparum [23]
  inhibition: Active
[24]
  AUC(0-t) at 24 h: 638 ng·h/mL
Plasmodium falciparum [25]
  IC50: 1.61 nM
Plasmodium falciparum [26]
  inhibition: Active
